Patent publication US9108978B2, “Antimicrobial compounds” (ADELAIDE RESEARCH & INNOVATION PTY LTD, priority 2011, dated 2015)
Where two headings read alike, the source gives them in different places.

Columns and labels:
[1] = target: biotin protein ligase from S. aureus (SaBPL) (Staphylococcus aureus, UniProt A0A3A5LBF0); experiment: BPL enzyme inhibition assay (3H-biotin incorporation), SaBPL; format: biochemical; conditions: for IC50: 4 nM BPL, 20 minutes at 37° C.; for selectivity towards SaBPL over HsBPL (human BPL): Hs vs SaBPL
Chain of biotin protein ligase from S. aureus (SaBPL) (A0A3A5LBF0 1-323): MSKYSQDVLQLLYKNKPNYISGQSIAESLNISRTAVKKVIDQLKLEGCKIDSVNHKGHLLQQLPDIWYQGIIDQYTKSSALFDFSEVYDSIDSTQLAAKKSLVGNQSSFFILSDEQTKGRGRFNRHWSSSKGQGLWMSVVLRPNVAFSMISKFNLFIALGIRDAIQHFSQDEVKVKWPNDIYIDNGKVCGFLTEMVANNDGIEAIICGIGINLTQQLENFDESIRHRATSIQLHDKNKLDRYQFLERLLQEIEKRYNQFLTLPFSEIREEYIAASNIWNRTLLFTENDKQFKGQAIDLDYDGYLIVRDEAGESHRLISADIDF
Procedure: (§1) Quantitation of BPL catalysed ^3H-biotin incorporation into the biotin domain substrate was performed as previously described by Polyak et al, J. Biol. Chem (1999) 274(46) 32847-54. Briefly, the reaction mixture contained: 50 mM Tris HCl pH 8.0, 3 mM ATP, 4.5 μM biotin, 0.5 μM ^3H-biotin, 5.5 mM MgCl2, 100 mM KCl, 0.1 mg/mL BSA and 10 μM biotin domain of S. aureus pyruvate carboxylase. The reaction was initiated by the addition of BPL to a final concentration of 4 nM. After 20 minutes at 37° C., 4 μL aliquots of the reaction were spotted onto Whatman paper pre-treated with biotin and trichloroacetic acid. The filters were washed twice with 10% v/v ice-cold trichloroacetic acid and once with ethanol before air-drying. Quantitation of protein-bound radiolabelled biotin was performed by liquid scintillation. One unit of enzyme activity was defined by the amount of BPL required to incorporate 1 nmol of biotin per minute. The IC50 value of each compound was determined from a dose-response curve by varying the concentration of the inhibitor under the same enzyme concentration. The data was analysed with GraphPad Prism using a non-linear fit of log10 (inhibitor) vs. normalized response. The Ki, the absolute inhibition constant for a compound, was determined using Eq 1:
The mode of inhibition was investigated by varying the concentrations of inhibitor alongside varying the concentrations of ^3H-biotin. The data was plotted as double reciprocal plots and assessed using Lineweaver-Burk analysis.
Triazoles 6.02-6.10 were assayed for inhibitory activity against the biotin protein ligases from S. aureus (SaBPL), Escherichia coli (EcBPL) and Homo sapiens (HsBPL) (Table 3). The inhibitory activity of the compounds was determined by measuring BPL activity with varying concentrations of inhibitors. From the dose-response curves IC50 values were determined and Ki values calculated.

[2] = target: biotin protein ligase from Escherichia coli (EcBPL) (Escherichia coli (strain K12), UniProt P06709); experiment: BPL enzyme inhibition assay (3H-biotin incorporation), EcBPL; format: biochemical
Chain of biotin protein ligase from Escherichia coli (EcBPL) (P06709 whole entry, looked up): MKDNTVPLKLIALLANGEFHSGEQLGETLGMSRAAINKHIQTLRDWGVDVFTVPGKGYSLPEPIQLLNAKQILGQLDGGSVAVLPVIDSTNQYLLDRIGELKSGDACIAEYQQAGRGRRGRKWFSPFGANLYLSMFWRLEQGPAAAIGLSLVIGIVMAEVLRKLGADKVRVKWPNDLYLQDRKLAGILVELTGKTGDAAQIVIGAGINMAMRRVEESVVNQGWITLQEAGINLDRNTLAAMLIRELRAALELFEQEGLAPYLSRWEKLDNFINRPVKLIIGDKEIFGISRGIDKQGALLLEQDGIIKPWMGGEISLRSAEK
Procedure: as §1
(§2) The inhibitory activity of the compounds was determined by measuring BPL activity with varying concentrations of inhibitors. From the dose-response curves IC50 values were determined and Ki values calculated.

[3] = target: biotin protein ligase from Homo sapiens (HsBPL) (Homo sapiens (Human), UniProt P50747); experiment: BPL enzyme inhibition assay (3H-biotin incorporation), HsBPL; format: biochemical
Chain of biotin protein ligase from Homo sapiens (HsBPL) (P50747 whole entry): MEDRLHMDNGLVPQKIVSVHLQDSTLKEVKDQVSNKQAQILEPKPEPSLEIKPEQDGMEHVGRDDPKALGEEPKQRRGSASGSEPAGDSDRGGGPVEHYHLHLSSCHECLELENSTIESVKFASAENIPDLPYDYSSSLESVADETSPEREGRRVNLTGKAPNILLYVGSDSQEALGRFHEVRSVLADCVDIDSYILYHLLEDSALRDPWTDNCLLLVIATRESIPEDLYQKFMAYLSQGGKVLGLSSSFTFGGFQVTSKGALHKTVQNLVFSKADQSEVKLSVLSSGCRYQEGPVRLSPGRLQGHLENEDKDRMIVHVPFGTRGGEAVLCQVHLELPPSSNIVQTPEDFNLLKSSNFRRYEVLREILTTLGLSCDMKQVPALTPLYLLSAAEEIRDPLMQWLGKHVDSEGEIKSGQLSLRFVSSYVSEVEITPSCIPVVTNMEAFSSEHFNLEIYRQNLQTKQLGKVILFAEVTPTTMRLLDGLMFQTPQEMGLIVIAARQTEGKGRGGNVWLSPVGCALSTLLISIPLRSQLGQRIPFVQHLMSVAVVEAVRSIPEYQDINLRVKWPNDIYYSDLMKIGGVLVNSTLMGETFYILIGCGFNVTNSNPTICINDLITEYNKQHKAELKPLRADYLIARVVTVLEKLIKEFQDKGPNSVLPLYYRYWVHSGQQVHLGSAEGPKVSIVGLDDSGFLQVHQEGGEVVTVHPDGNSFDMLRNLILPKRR
Procedure: as §1, §2

[4] = tested on: Enterococcus faecalis; experiment: Antimicrobial microbroth dilution assay, E. faecalis; format: cell-based
Procedure: (§3) The biotin-triazoles were assessed for their antimicrobial activity using a microbroth dilution assay as recommended by the CLSI (Clinical and Laboratory Standards Institute, Document […]-A8, 2009, Wayne, Pa.) with cation-adjusted Mueller-Hinton broth (Trek Diagnostics Systems, U.K.). Compounds were dissolved using DMSO. Serial two-fold dilutions of each compound were made using DMSO as the diluent. Trays were inoculated with 5×10^4 CFU of each strain in a volume of 100 μL (final concentration of DMSO was 5% (v/v)), and incubated at 35° C. for 16-20 hours when the optical density of the growth cultures was measured by spectroscopy at wavelength 620 nm. A library of Gram negative and Gram positive microbes was employed.

[5] = tested on: S. aureus ATCC 49775; experiment: Antimicrobial microbroth dilution assay, S. aureus; format: cell-based, Staphylococcus aureus; conditions: at 8 μg/ml
Procedure: as §3, with “employed. […] Inhibition of the growth of S. aureus ATCC 49775 was measured using a microbroth dilution assay with varying concentrations of BPL inhibitors. […] The antibiotic erythromycin was also included (X).” for “employed.”

[6] = tested on: Enterococcus faecium; experiment: Antimicrobial microbroth dilution assay, E. faecium; format: cell-based
Procedure: as §3

[7] = target: M. tuberculosis BPL (Mycobacterium tuberculosis (strain ATCC 25618 / H37Rv), UniProt I6YFP0); experiment: BPL inhibition, M. tuberculosis BPL; format: biochemical, Mycobacteria tuberculosis
Chain of M. tuberculosis BPL (I6YFP0 whole entry, looked up): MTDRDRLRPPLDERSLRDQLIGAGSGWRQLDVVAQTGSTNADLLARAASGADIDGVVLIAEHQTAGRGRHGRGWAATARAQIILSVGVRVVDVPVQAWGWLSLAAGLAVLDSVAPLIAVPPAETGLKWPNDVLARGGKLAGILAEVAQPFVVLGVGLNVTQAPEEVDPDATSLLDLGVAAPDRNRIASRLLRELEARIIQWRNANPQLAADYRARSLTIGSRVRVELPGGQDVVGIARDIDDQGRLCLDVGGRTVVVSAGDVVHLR

[8] = calculated from IC50, [biotin]=5 μM, Km 1 μM, read-out: Ki SaBPL
[9] = read-out: Ki EcBPL (E. coli BPL)

| Compound | IC50 [1] | Ki [1, 8] | Ki [2] | Ki [2, 9] | fold less potent against SaBPL compared to biotinol-5′-AMP 2.02 [1] | selectivity towards SaBPL over HsBPL (human BPL) [1] | Ki ([1]; read-out: Ki SaBPL) | Ki [3] | inhibition against SaBPL [1] | Ki [1] | also measured |
| --- | --- | --- | --- | --- | --- | --- | --- | --- | --- | --- | --- |
| Cc1ccc2oc(=O)n(CCCCOP(=O)(O)OCCCCC[C@@H]3SC[C@@H]4NC(=O)N[C@@H]43)c2c1 | > 50 µM | > 10 µM |  |  |  |  |  |  |  |  |  |
| CC1(C)O[C@@H]2[C@H](O1)[C@@H](n1cnc3c(N)ncnc31)O[C@H]2Cn1cc(CCCCC[C@@H]2SC[C@@H]3NC(=O)N[C@@H]32)nn1 [3.25] | 11.6 ± 2.2 µM |  | > 90 µM | > 30 µM | 60 fold | > 16 fold | 1.83 ± 0.33 µM | > 90 µM |  |  |  |
| Nc1ncnc2c1ncn2CCCCn1cc(CCCCC[C@@H]2SC[C@@H]3NC(=O)N[C@@H]32)nn1 [4.01] | 4 ± 0.9 µM | 0.66 ± 0.15 µM | > 90 µM | > 30 µM | 22 fold | at least 400 fold |  | > 90 µM | micromolar inhibition |  | IC50 [2]: > 200 µM; selectivity towards SaBPL over EcBPL (E. coli BPL) [1]: at least 400 fold; IC50 ([3]; in b132 the quantity is not named): > 200 µM |
| CC1(C)O[C@@H]2[C@H](O1)[C@@H](n1cnc3c(N)ncnc31)O[C@H]2Cn1cc(CCCC[C@@H]2SC[C@@H]3NC(=O)N[C@@H]32)nn1 [4.09] |  |  | > 10 µM |  |  |  |  | > 10 µM | micromolar inhibition | 7.53 ± 1.9 µM | fold less potent against SaBPL compared to triazole 3.25 [1]: 4 fold |
| Nc1ncnc2c1ncn2CCCCCn1cc(CCCC[C@@H]2SC[C@@H]3NC(=O)N[C@@H]32)nn1 [4.13] |  |  | > 10 µM |  |  |  |  | > 10 µM | micromolar inhibition | 2.86 ± 0.75 µM | fold less potent against SaBPL compared to 4.01 [1]: 4 fold |
| O=C1N[C@H]2[C@H](CS[C@H]2CCCCCc2cn(CCCCOc3ccc4ccccc4c3)nn2)N1 [6.07] | 7 ± 1 µM | 1.17 ± 0.17 µM |  | > 30 µM |  |  |  | > 30 µM |  |  | fold less potent against SaBPL compared to 4.01 [1]: 7 fold |
| Cc1ccc2oc(=O)n(CCCCn3cc(CCCCC[C@@H]4SC[C@@H]5NC(=O)N[C@@H]54)nn3)c2c1 [6.09] | 0.53 ± 0.01 µM |  |  | > 30 µM | 3 fold | > 1000 fold | 0.09 ± 0.02 µM | > 30 µM |  |  | fold increase in potency against SaBPL compared to 4.01 [1]: 7 fold; selectivity towards SaBPL over EcBPL (E. coli BPL) [1]: > 1000 fold; inhibition of growth of Enterococcus faecalis [4]: no inhibition of growth; prevention of cell growth of S. aureus ATCC 49775 [5]: 80%; inhibition of growth of Enterococcus faecium [6]: no inhibition of growth |
| Cc1ccc2oc(=O)n(CCCCc3noc(CCCCC[C@@H]4SC[C@@H]5NC(=O)N[C@@H]54)n3)c2c1 [compound 2, 3-[4-[5-[5-[(3aS,4S,6aR)-2-oxo-1,3,3a,4,6,6a-hexahydrothieno[3,4-d]imidazol-4-yl]pentyl]-1,2,4-oxadiazol-3-yl]butyl]-5-methyl-1,3-benzoxazol-2-one] |  |  |  |  |  |  |  |  |  | 2.2 ± 0.8 µM | Ki [7]: 290 ± 16 µM |
| biotin alkyne [3.12] |  |  |  |  |  |  | 0.33 ± 0.05 µM |  |  |  |  |
